Test results as given in patent publication US20160039802A1, “3-PYRIMIDIN-4-YL-OXAZOLIDIN-2-ONES AS INHIBITORS OF MUTANT IDH” (NOVARTIS AG, priority 2013, published 2016).

Tests used:
IDH1 (R132H) mutant = target: T1, IDH1 (R132H) mutant (Homo sapiens, UniProt O75874, R132H); assay: Fluorescence biochemical assay (NADPH oxidation); conditions: mIDH R132H 10 nM, 10 μM NADPH, 100 μM α-KG; range where run multiple times
T1 construct: His6 with PreScission site (N, cleaved yes); made in house; host or cells: E. coli Rosetta 2(DE3)
T1 sequence (O75874 whole entry R132H): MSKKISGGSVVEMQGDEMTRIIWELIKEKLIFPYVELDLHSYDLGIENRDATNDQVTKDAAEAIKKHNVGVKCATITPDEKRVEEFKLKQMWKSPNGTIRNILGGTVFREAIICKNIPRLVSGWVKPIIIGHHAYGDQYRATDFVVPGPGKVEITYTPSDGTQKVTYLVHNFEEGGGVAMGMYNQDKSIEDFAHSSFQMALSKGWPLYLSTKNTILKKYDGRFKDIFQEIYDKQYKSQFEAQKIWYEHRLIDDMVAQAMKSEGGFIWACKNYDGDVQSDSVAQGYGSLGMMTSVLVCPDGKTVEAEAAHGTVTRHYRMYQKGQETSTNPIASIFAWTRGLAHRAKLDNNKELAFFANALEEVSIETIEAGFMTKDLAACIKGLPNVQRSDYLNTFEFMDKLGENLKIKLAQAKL
Method: The IDH1 (R132H) mutant catalyzes the reduced form of NADP+ (NADPH) and α-ketoglutarate (α-KG) to form nicotinamide adenine dinucleotide phosphate (NADP+) and R(−)-2-hydroxyglutarate (2HG). […] Reactions were monitored using the Perkin-Elmer Envision, Model 2101. […] The final reaction mixture contained 2.5% DMSO and test compounds with concentrations ranging 0.0000008-25 μM. The IDH1 (R132H) enzyme was used at a final concentration of 10 nM. Curve fitting for dose response […] determinations was done in the Helios module of the software package DAVID. The 4-parameter logistic model was used: y=min+((max−min)/1+(x/IC50)^shape)

Mutant IDH1 R132H = target: T2, Mutant IDH1 R132H (Homo sapiens, UniProt O75874, R132H); assay: Mutant IDH1 biochemical assay: LC-MS detection of 2-HG; conditions: mIDH R132H […], 5 uM NADPH, 100 uM alpha-KG, 45 minutes incubation; range where run multiple times; note: mIDH R132H 0.25 nM, 5 µM NADPH
T2 construct: His6 with PreScission site (N, cleaved yes); made in house; host or cells: E. coli Rosetta 2(DE3)
T2 sequence (O75874 whole entry R132H): as above
Text: Mutant IDH1 biochemical Sssay: LC-MS Detection of 2-HG.

IC50 (IDH1 (R132H) mutant) [µM]	IC50 (Mutant IDH1 R132H) [µM]	SMILES
0.0159	0.0109	C[C@H](Nc1nccc(N2C(=O)OC[C@]2(C)C2CC2)n1)c1ccc(CN2CCC(O)(C(F)(F)F)CC2)cc1F [Example 35, (S)-4-cyclopropyl-3-(2-(((S)-1-(2-fluoro-4-((4-hydroxy-4-(trifluoromethyl)piperidin-1-yl)methyl)phenyl)ethyl)amino)pyrimidin-4-yl)-4-methyloxazolidin-2-one]
0.105 to 0.111	0.117	CNC1CCN(Cc2ccc([C@H](C)Nc3nccc(N4C(=O)OC[C@]4(C)C4CC4)n3)cc2F)CC1 [Example 40, (S)-4-cyclopropyl-3-(2-(((S)-1-(3-fluoro-4-((4-(methylamino)piperidin-1-yl)methyl)phenyl)ethyl)amino)pyrimidin-4-yl)-4-methyloxazolidin-2-one]
0.194 to 0.473	0.376	C[C@H](Nc1nccc(N2C(=O)OC[C@]2(C)C2CC2)n1)c1ccc(CN2CCC(N)CC2)c(F)c1 [Example 41, (S)-3-(2-(((S)-1-(4-((4-aminopiperidin-1-yl)methyl)-3-fluorophenyl)ethyl)amino)pyrimidin-4-yl)-4-cyclopropyl-4-methyloxazolidin-2-one]
